The results in this text go back to US20230138984A1, “HA-PACLITAXEL CONJUGATE FOR TREATMENT OF MESOTHELIOMA” (FIDIA FARMACEUTICI S.p.A., priority 2020, published 2023).

In test [1] the test system is H28 cells. The test is described as follows: MTT cytotoxicity assay on mesothelioma cell line H28. Particulars: Homo sapiens, NCI-H28, 48 h, read-out: Normalized IC50. For orientation: Formazan colour is commonly taken as a measure of viable cells.
Test [2] has as its system H2452 cells. The experiment in a line: MTT cytotoxicity assay on mesothelioma cell line H2452. Particulars: Homo sapiens, NCI-H2452, 48 h, read-out: Normalized IC50.
In test [3] the test system is H2052 cells. The experiment in a line: MTT cytotoxicity assay on mesothelioma cell line H2052. Particulars: Homo sapiens, NCI-H2052, 48 h, read-out: Normalized IC50.
Test [4] concerns human mesothelioma H2052 cells. As to conditions: for average luminescence of tumor zone: weekly, order of magnitude, compared with untreated 1x10^12 on the 100° day. The text has this:
The cell lines of human mesothelioma H2052 were transduced with a lentiviral vector (method by which the genes can be inserted into cells using the lentivirus) containing a bidirectional promoter allowing the high and coordinated expression of two reporter genes for the synthesis of luciferase and eGFP (enhanced Green Fluorescent Protein), as described in Amendola et al., Nat Biotechnol 2005, 23:108-16: luciferase is an enzyme that catalyzes the oxidation of luciferin which oxidizing emits energy ([…]) in the form of light radiation and such reaction has an ultra-high sensitivity; the eGFP derives from the jellyfish Aequorea victoria, and it is capable of emitting bright green light when exposed to certain wavelengths; both such proteins are used below as a “marker system” for human mesothelioma cells H2052 transduced as above, in order to identify the tumor mass that is formed in animals injected with such cells and to determine its dimensions and the growth over time through suitable bioluminescence sensor.
Cells were incubated for 6 hours in a mixture of complete medium (RPMI + 10% FBS, 1% HEPES, L-glutamine and penicillin/streptomycin) containing the above-mentioned vector and protamine sulphate. At the end of 6 hours of incubation, supernatants were re-integrated with complete medium. After 5 days, the effect of the transduction was evaluated through flow cytometry.
Cells were then expanded and sub-divided in order to isolate the population with the higher expression of reporter genes.
All treated animals were monitored through detection of bioluminescence emitted by their tumor zone treated with HA-paclitaxel conjugate, in order to assess over time, the dimension (and therefore the growth) of the tumor with reference to animals untreated with any chemotherapeutic agent and to those treated with non-conjugated paclitaxel.

Structures are written as SMILES. ≈ marks a conversion by molar mass, not a printed value. Read-outs that look alike come from different tables or passages of the source.

In the case of `CC(=O)O[C@H]1C(=O)[C@@]2(C)[C@H]([C@H](OC(=O)c3ccccc3)[C@]3(O)C[C@H](OC(=O)[C@H](O)[C@@H](NC(=O)c4ccccc4)c4ccccc4)C(C)=C1C3(C)C)[C@]1(OC(C)=O)CO[C@@H]1C[C@@H]2O` [paclitaxel], the IC50 in test [1] is 0.787 µg/mL (≈ 0.922 µM); in test [2], 0.8 µg/mL (≈ 0.937 µM); in test [3] it was 0.225 µg/mL (≈ 0.263 µM). The “average luminescence of tumor zone” value in test [4] (2° sample: 10 mg/Kg iv for 3 treatments then ip) and in test [4] (3° sample: 10 mg/Kg ip) was ~1x10^11 Ph/sec in each case. Moreover, the “bioluminescence emitted by treated tumor zone” value in test [4] (non-conjugated paclitaxel 10 mg/Kg, after 139 days of observation (FIG. 2)) is “around 12x10^11 Ph/sec”.

For orientation: IC50 means the midpoint of a concentration-inhibition curve.
